ChEMBL document CHEMBL1132852, “Synthesis and structure-activity relationships of 4-oxo-1-phenyl-3,4,6,7-tetrahydro-[1,4]diazepino[6,7,1-hi]indoles: novel PDE4 inhibitors” (Bioorg Med Chem Lett, 2000)
The source made the active and inactive calls. The calls are words filed in the database; no cut-off is given here.

Columns and labels:
Phosphodiesterase 4 [1] = target: Phosphodiesterase 4 (Homo sapiens, UniProt P27815+Q08499+Q07343+Q08493); assay: Inhibition of phosphodiesterase 4 extracted from human U937 cells by using radioligands [3H]-cAMP or [3H]cGMP.; format: cell-free; settings: u-937
[2] = target: Phosphodiesterase, PDE1/PDE5 (Homo sapiens, UniProt O76074+P54750+Q01064+Q14123); assay: Inhibitory activity against phosphodiesterase 1/5 (PDE1/5) extracted from guinea pig trachea smooth muscle cells by using radioligands [3H]-cAMP or [3H]cGMP; format: tissue-based, Cavia porcellus; settings: target entry is the homologue from another species
Phosphodiesterase 3 = Phosphodiesterase 3 (Homo sapiens, UniProt Q14432+Q13370); assay: Inhibition of Phosphodiesterase 3 extracted from dog aorta smooth muscle cells by using radioligands [3H]cAMP or [3H]-cGMP.; set-up: species or system Canis lupus familiaris; settings: target entry is the homologue from another species
Rattus norvegicus = assay: Inhibition of antigen-induced lung eosinophilia in ovalbumin sensitized brown-norway rats after oral administration; format: functional
Canis familiaris [3] = assay: Emetic effect in dogs administered at 3 mg/kg intravenously (no effect); format: functional, organism-based; set-up: dose 3 mg/kg; settings: Canis lupus familiaris
Phosphodiesterase 4 [4] = target: Phosphodiesterase 4 (Rattus norvegicus, UniProt P14270+P14646+P14644+P54748); assay: Displacement of [3H]rolipram from rat brain membrane suspensions; format: functional, tissue-based
Canis familiaris [5] = assay: Emetic effect in dogs administered at 3 mg/kg intravenously (No effect); format: functional, organism-based; set-up: dose 3 mg/kg; settings: Canis lupus familiaris
Canis familiaris [6] = assay: Emetic effect in dogs administered at 0.03 mg/kg intravenously (No effect); format: functional, organism-based; set-up: dose 0.03 mg/kg; settings: Canis lupus familiaris

| Structure (SMILES) | IC50 (Phosphodiesterase 4 [1]) [µM] | IC50 [2] [µM] | IC50 (Phosphodiesterase 3) [µM] | ED50 (Rattus norvegicus) [mg/kg] | Activity (Canis familiaris [3]) | IC50 (Phosphodiesterase 4 [4]) [µM] | Activity (Canis familiaris [5]) | Activity (Canis familiaris [6]) |
| --- | --- | --- | --- | --- | --- | --- | --- | --- |
| O=C(N[C@@H]1N=C(c2ccccc2)c2cc(O)cc3c2N(CC3)C1=O)c1cc2ccccc2cn1 | 0.41 | > 100 | > 3.5 |  |  |  |  |  |
| Cc1cc2c3c(c1)C(c1ccccc1)=N[C@@H](NC(=O)c1ccc(Cl)cc1)C(=O)N3CC2 | 1.25 | > 100 | 27 |  |  |  |  |  |
| COc1cc2c3c(c1)C(c1ccccc1)=N[C@@H](NC(=O)c1cc4ccccc4[nH]1)C(=O)N3CC2 | 0.65 | 100 | > 100 |  |  |  |  |  |
| COc1ccc(C(=O)N[C@@H]2N=C(c3ccccc3)c3cc(C)cc4c3N(CC4)C2=O)c(OC)c1 | 0.96 |  | 7.85 |  |  |  |  |  |
| COc1ccccc1C(=O)N[C@@H]1N=C(c2ccccc2)c2cc(C)cc3c2N(CC3)C1=O | 0.76 | 71.7 | > 100 |  |  |  |  |  |
| Cc1cc2c3c(c1)C(c1ccccc1)=N[C@@H](NC(=O)c1cc(Cl)c(N)c(Cl)c1)C(=O)N3CC2 | 0.33 | > 100 | 17.5 |  |  |  |  |  |
| Cc1cc2c3c(c1)C(c1ccccc1)=N[C@@H](NC(=O)c1ccncc1)C(=O)N3CC2 | 1.14 | > 100 | > 100 | 6.9 | inactive |  |  |  |
| O=C(NC1N=C(c2ccccc2)c2cccc3c2N(CCC3)C1=O)c1cc2ccccc2[nH]1 (stereo not given) | > 100 | > 100 | > 100 |  |  |  |  |  |
| Cc1cc2c3c(c1)C(c1ccccc1)=N[C@@H](NC(=O)c1cc4ccccc4cn1)C(=O)N3CC2 | 2.6 | > 100 | > 100 | 10.7 |  | > 3 | inactive |  |
| COc1cc2c3c(c1)C(c1ccccc1)=N[C@@H](NC(=O)c1ccc(Cl)cc1)C(=O)N3CC2 | 1.8 | 40 | 62 |  |  |  |  |  |
| O=C(N[C@H]1N=C(c2ccccc2)c2cccc3c2N(CC3)C1=O)c1cc2ccccc2[nH]1 | 100 | 100 | > 100 |  |  |  |  |  |
| COc1cc2c3c(c1)C(c1ccccc1)=N[C@@H](NC(=O)c1cc4ccccc4cn1)C(=O)N3CC2 | 1.62 | 65.3 | 82 |  |  |  |  |  |
| O=C(NC1N=C(c2ccccc2)c2ccccc2NC1=O)c1cc2ccccc2[nH]1 (stereo not given) | > 100 |  | > 100 |  |  |  |  |  |
| O=C(N[C@@H]1N=C(c2ccccc2F)c2cccc3c2N(CC3)C1=O)c1cc2ccccc2[nH]1 | > 100 |  | > 100 |  |  |  |  |  |
| O=C(N[C@@H]1N=C(c2ccccc2)c2cccc3c2N(CC3)C1=O)c1cc2ccccc2[nH]1 | 4 | > 100 | > 100 |  |  |  |  |  |
| O=C(N[C@@H]1N=C(c2ccccc2)c2cccc3c2N(CC3)C1=O)c1cc2ccccc2cn1 | 4.2 | > 100 | > 100 |  |  |  |  |  |
| Cc1cc2c3c(c1)C(c1ccccc1)=N[C@@H](NC(=O)c1cc(Cl)cc(Cl)c1)C(=O)N3CC2 | 1.15 | > 100 | 43.7 |  |  |  |  |  |
| Cc1cc2c3c(c1)C(c1ccccc1)=N[C@@H](NC(=O)c1ccc(Cl)cc1Cl)C(=O)N3CC2 | 0.76 | > 100 | 17.5 |  |  |  |  |  |
| Cc1cc2c3c(c1)C(c1ccccc1)=N[C@@H](NC(=O)c1nnc4cc(C)nn4c1C)C(=O)N3CC2 | 0.71 | > 100 | > 100 |  |  |  |  |  |
| O=C(NC1N=C(c2ccccc2F)c2cc(Cl)cc3c2N(CC3)C1=O)c1cc2ccccc2[nH]1 (stereo not given) | > 100 |  | > 100 |  |  |  |  |  |
| COc1ccc(C2CNC(=O)C2)cc1OC1CCCC1 (stereo not given) |  |  |  |  |  |  |  | inactive |
| Nc1c(Cl)cc(C(=O)N[C@@H]2N=C(c3ccccc3)c3cccc4c3N(CC4)C2=O)cc1Cl | 0.63 | > 100 | > 100 |  |  |  |  |  |
